Legend:
AML BMMC leukemic blasts = assay: SCNP modulated signaling assay, AML study No. 2 (BMMC, CR vs NR, clinical sub-groups); type: cell-based, human
Procedure: Two independent sets of cryopreserved samples were analyzed sequentially. The first set consisted of 35 peripheral blood mononuclear cell (PBMC) samples derived from AML patients. The second set consisted of 134 cryopreserved bone marrow mononuclear cell (BMMC) samples derived from AML patients. These samples were the same samples used in the previous examples. Sample inclusion criteria required collection prior to initiation of induction chemotherapy, AML classification by the French-American-British (FAB) criteria as M0 through M7 (excluding M3) and availability of clinical annotations.
In the first study, induction chemotherapy consisted of at least one cycle of standard cytarabine-based induction therapy (i.e. daunorubicin 60 mg/m^2×3 days, cytarabine 100-200 mg/m^2 continuous infusion×7 days); responses were measured after one cycle of induction therapy. In the second study, cytarabine (200 mg/m^2 to 3 g/m^2) was used in combination with an anthracycline (daunorubicin or idarubicin) or an additional anti-metabolite (e.g. fludarabine or troxacitabine), and sometimes, an experimental agent (Table 16). […] Standard clinical and laboratory criteria were used for defining complete response (CR) in both studies. […] Classified as “CRp,” these samples were included in the CR group for all primary analysis. The univariate analyses were also repeated with the CRp patients classified into the NR sample group for sensitivity analysis.
Cyropreserved samples were thawed at […], washed and centrifuged in PBS, 10% FBS and 2 mM EDTA. The cells were re-suspended, filtered to remove debris and washed in RPMI cell culture media, 1% FBS, then stained with Live/Dead Fixable Aqua Viability Dye to distinguish non-viable cells. The cells were then re-suspended in RPMI, 1% FBS, aliquoted to 100,000 cells/condition and rested for 1-2 hours at 37° C. prior to SCNP assays. Each condition included two to five phenotypic markers for cell population gating (eg, CD45, CD33), up to three intracellular stains or up to three additional surface markers or control antibodies for an eight-color flow cytometry assay.
Functional assays were performed as previously described. Cells were incubated with modulators (Table 18), at 37° C. for 3-15 minutes, fixed with 1.6% paraformaldehyde (final concentration) for 10 minutes at 37° C., pelleted and permeabilized with 100% ice-cold methanol and stored at −80° C.
Data was acquired using FACS DIVA software on both LSR II and CANTO II Flow Cytometers (BD). For all analyses, dead cells and debris were excluded by forward scatter (FSC), side scatter (SSC), and Amine Aqua Viability Dye measurement. Leukemic cells were identified as cells that lacked the characteristics of mature lymphocytes (CD45^++, CD33^−) and that fit the CD45 and CD33 versus right-angle light-scatter characteristics consistent with myeloid leukemia cells.
The median fluorescence intensity (MFI) was computed for each node from the fluorescence intensity levels for the cells in the myeloid population. The MFI values were then used to compute a variety of metrics by comparing them to baseline or background values, including the unmodulated condition, cellular autofluorescence and antibody isotype controls. The following metrics were computed: • 1. Basal MFI (“Basal”)=log2(MFIUnmodulated Stained)−log2(MFIGated Unstained (Autofluoresence)), designed to measure the basal levels of a certain protein under unmodulated conditions. • 2.

AML blasts = assay: SCNP / phospho-flow modulated signaling assay, AML study No. 1 (PBMC at diagnosis, CR vs NR); type: cell-based, human
Excerpt: The present illustrative example represents how to analyze cells in one embodiment of the present invention. There are several steps in the process, such as the stimulation step, the staining step and the flow cytometry step. The stimulation step of the phospho-flow procedure can start with vials of frozen cells and end with cells fixed and permeabilized in methanol. Then the cells can be stained with an antibody directed to a particular protein of interest and then analyzed using a flow cytometer.
Frozen cells are thawed in a 37° C. water bath and gently resuspended in the vial and transferred to the 15 mL conical tube. The 15 mL tube is centrifuged at 930 RPM (200×g) for 8 minutes at room temperature. The supernatant is aspirated and the pellet is gently resuspended in 1 mL media A. The cell suspension is filtered through a 70 um cell strainer into a new 15 mL tube. The cell strainer is rinsed with 1 mL media A and another 12 ml of media A into the 15 mL tube. The cells are mixed into an even suspension. A 20 μL aliquot is immediately removed into a 96-well plate containing 180 μL PBS+4% FBS+CD45 Alexa 700+PI to determine cell count and viability post spin. After the determination, the 15 mL tubes are centrifuged at 930 RPM (200×g) for 8 minutes at room temperature. The supernatant is aspirated and the cell pellet is gently resuspended in 4 mL PBS+4 μL Amine Aqua and incubated for 15 min in a 37° C. incubator. 10 mL RPMI+1% FBS is added to the cell suspension and the tube is inverted to mix the cells. The 15 mL tubes are centrifuged at 930 RPM (200×g) for 8 minutes at room temperature. The cells are resuspended in Media A at the desired cell concentration (1.25×10^6/mL). For samples with low numbers of cells (<18.5×10^6), the cells are resuspended in up to 15 mL media. For samples with high numbers of cells (>18.5×10^6), the volume is raised to 10 mL with media A and the desired volume is transferred to a new 15 mL tube, and the cell concentration is adjusted to 1.25×10^6 cells/ml. 1.6 mL of the above cell suspension (concentration at 1.25×10^6 cells/ml) is transferred into wells of a multi-well plate. From this plate, 80 ul is dispensed into each well of a subsequent plate. The plates are covered with a lid (Nunc) and placed in a 37° C. incubator for 2 hours to rest.
A concentration for each stimulant that is five folds more (5×) than the final concentration is prepared using Media A as diluent. 5× stimuli are arrayed into wells of a standard 96 well v-bottom plate that correspond to the wells on the plate with cells to be stimulated.
Adding the stimulant: The cell plate(s) are taken out of the incubator and placed in a 37° C. water bath next to the pipette apparatus. The cell plate is taken from the water bath and gently swirled to resuspend any settled cells. With pipettor, the stimulant is dispensed into the cell plate and vortexed at “7” for 5 seconds. The deep well plate is put back into the water bath.
Adding Fixative: 200 μl of the fixative solution (final concentration at 1.6%) is dispensed into wells and then mixed on the titer plate shaker on high for 5 seconds. The plate is covered with foil sealer and incubated in a 37° C. water bath for 10 minutes. The plate is spun for 6 minutes at 2000 rpm at room temperature. The cells are aspirated using a 96 well plate aspirator (VP Scientific). The plate is vortexed to resuspend cell pellets in the residual volume. The pellet is ensured to be dispersed before the Methanol step (see cell permeabilization) or clumping will occur.
Cell Permeabilization: Permeability agent, for example methanol, is added slowly and while the plate is vortexing. To do this, the cell plate is placed on titer plate shaker and made sure it is secure. The plate is set to shake using the highest setting. A pipetter is used to add 0.6 mls of 100% methanol to the plate wells. The plate(s) are put on ice until this step has been completed for all plates.

[1] = Study No. 2, all patients, CR samples
[2] = Study No. 1 sensitivity analysis, CR samples
[3] = Study No. 1 sensitivity analysis, NR samples incl. CRp
[4] = Study No. 2, all patients, CR samples, negative = down regulation
[5] = Study No. 2, all patients, NR samples

Molecule: CCCCCCCCCCCCCC(=O)O[C@@H]1[C@@H](C)[C@@]2(O)[C@@H](C=C(CO)C[C@]3(O)C(=O)C(C)=C[C@@H]23)[C@@H]2C(C)(C)[C@]12OC(C)=O [PMA, reference compound]
- Mean Value of CRs, p-Erk Fold (AML BMMC leukemic blasts; [1]): 2.82
- Mean Value of CRs, p-CREB Total Phospho (AML BMMC leukemic blasts; Study No. 2, patients less than 60 years old, CR samples): 3.72
- Mean Value of NRs, p-CREB Total Phospho (AML BMMC leukemic blasts; Study No. 2, patients less than 60 years old, NR samples): 5.00

Molecule: EPO
- Mean Value of CRs, p-Stat1 Total Phospho (AML blasts; [2]): 0.17
- Mean Value of CRs, p-Stat3 Total Phospho (AML blasts; [2]): 0.64
- Mean Value of NRs, p-Stat1 Total Phospho (AML blasts; [3]): 0.42
- Mean Value of NRs, p-Stat3 Total Phospho (AML blasts; [3]): 1.23

Molecule: GM-CSF: granulocyte macrophage stimulating factor
- increase in p-Akt and p-S6 levels (AML blasts; Staurosporine Resistant category vs other apoptosis categories): greatest increase in p-Akt and p-S6 levels
- Mean Value of CRs, p-Stat3 Total Phospho (AML blasts; [2]): 0.83
- Mean Value of NRs, p-Stat3 Total Phospho (AML blasts; [3]): 1.23
- Jak/Stat response (G-CSF: p-Stat3, p-Stat5; GM-CSF: p-Stat5) (AML blasts; all samples of the Staurosporine Resistant apoptosis category): Robust Jak/Stat responses

Molecule: IGF-1
- Mean Value of CRs, p-Plcγ2 Total Phospho (AML blasts; [2]): 1.82
- Mean Value of CRs, p-CREB Alexa488 Total Phospho (AML blasts; Study No. 1 sensitivity analysis, CR samples, Alexa488 conjugate): 1.11
- Mean Value of CRs, p-CREB PE Total Phospho (AML blasts; Study No. 1 sensitivity analysis, CR samples, PE conjugate): 1.42
- Mean Value of NRs, p-Plcγ2 Total Phospho (AML blasts; [3]): 2.76
- Mean Value of NRs, p-CREB Alexa488 Total Phospho (AML blasts; Study No. 1 sensitivity analysis, NR samples incl. CRp, Alexa488 conjugate): 1.62
- Mean Value of NRs, p-CREB PE Total Phospho (AML blasts; Study No. 1 sensitivity analysis, NR samples incl. CRp, PE conjugate): 2.29

Molecule: IL-6: interleukin 6, cytokine modulator
- Mean Value of CRs, p-CREB Total Phospho (AML blasts; [2]): 1.58
- Mean Value of CRs, p-Stat3 Total Phospho (AML blasts; [2]): 1.08
- Mean Value of NRs, p-CREB Total Phospho (AML blasts; [3]): 2.44
- Mean Value of NRs, p-Stat3 Total Phospho (AML blasts; [3]): 1.81
- Mean Value of CRs, p-Stat3 Total Phospho (AML BMMC leukemic blasts; [1]): 1.76
- Mean Value of CRs, p-Stat5 Fold (AML BMMC leukemic blasts; [1]): 0.13
- Mean Value of CRs, p-Stat1 Fold (AML BMMC leukemic blasts; [4]): −0.01
- Mean Value of CRs, p-Stat3 Fold (AML BMMC leukemic blasts; [4]): 0.12
- Mean Value of NRs, p-Stat1 Fold (AML BMMC leukemic blasts; [5]): 0.26
- Mean Value of NRs, p-Stat3 Fold (AML BMMC leukemic blasts; [5]): 1.09
- Mean Value of NRs, p-Stat3 Total Phospho (AML BMMC leukemic blasts; [5]): 2.98
- Mean Value of NRs, p-Stat5 Fold (AML BMMC leukemic blasts; [5]): 0.55

Molecule: IL-10: interleukin 10, cytokine modulator
- Mean Value of CRs, p-Stat1 Total Phospho (AML blasts; [2]): 0.17
- Mean Value of CRs, p-Stat3 Total Phospho (AML blasts; [2]): 0.72
- Mean Value of NRs, p-Stat1 Total Phospho (AML blasts; [3]): 0.47
- Mean Value of NRs, p-Stat3 Total Phospho (AML blasts; [3]): 1.69
- Mean Value of CRs, p-Stat5 Fold (AML BMMC leukemic blasts; [1]): 0.09
- Mean Value of CRs, p-Stat3 Fold (AML BMMC leukemic blasts; [4]): 0.08
- Mean Value of NRs, p-Stat3 Fold (AML BMMC leukemic blasts; [5]): 0.39
- Mean Value of CRs, p-Stat5 Fold (AML BMMC leukemic blasts; Study No. 2, patients with de novo AML, CR samples): 0.06

B1: CD40L (protein, UniProt P29965 113-261, looked up)
CD40 ligand, soluble form: MQKGDQNPQIAAHVISEASSKTTSVLQWAEKGYYTMSNNLVTLENGKQLTVKRQGLYYIYAQVTFCSNREASSQAPFIASLCLKSPGRFERILLRAANTHSSAKPCGQQSIHLGGVFELQPGASVFVNVTDPSQVSHGTGFTSFGLLKL
- Mean Value of CRs, p-CREB Total Phospho (AML blasts; [2]): 1.37
- Mean Value of CRs, p-Erk Total Phospho (AML blasts; [2]): 1.18
- Mean Value of NRs, p-CREB Total Phospho (AML blasts; [3]): 2.67
- Mean Value of NRs, p-Erk Total Phospho (AML blasts; [3]): 1.62

B2: M-CSF (protein, UniProt P09603 33-554, looked up)
Macrophage colony-stimulating …: EEVSEYCSHMIGSGHLQSLQRLIDSQMETSCQITFEFVDQEQLKDPVCYLKKAFLLVQDIMEDTMRFRDNTPNAIAIVQLQELSLRLKSCFTKDYEEHDKACVRTFYETPLQLLEKVKNVFNETKNLLDKDWNIFSKNCNNSFAECSSQDVVTKPDCNCLYPKAIPSSDPASVSPHQPLAPSMAPVAGLTWEDSEGTEGSSLLPGEQPLHTVDPGSAKQRPPRSTCQSFEPPETPVVKDSTIGGSPQPRPSVGAFNPGMEDILDSAMGTNWVPEEASGEASEIPVPQGTELSPSRPGGGSMQTEPARPSNFLSASSPLPASAKGQQPADVTGTALPRVGPVRPTGQDWNHTPQKTDHPSALLRDPPEPGSPRISSLRPQGLSNPSTLSAQPQLSRSHSSGSVLPLGELEGRRSTRDRRSPAEPEGGPASEGAARPLPRFNSVPLTDTGHERQSEGSFSPQLQESVFHLLVPSVILVLLAVGGLLFYRWRRRSHQEPQRADSPLEQPEGSPLTQDDRQVELPV
- Mean Value of CRs, p-Akt Fold (AML blasts; [2]): −0.16
- Mean Value of CRs, p-CREB Total Phospho (AML blasts; [2]): 1.26
- Mean Value of CRs, p-Plcγ2 Total Phospho (AML blasts; [2]): 1.79
- Mean Value of NRs, p-Akt Fold (AML blasts; [3]): 0.05
- Mean Value of NRs, p-CREB Total Phospho (AML blasts; [3]): 1.76
- Mean Value of NRs, p-Plcγ2 Total Phospho (AML blasts; [3]): 2.8

Source: patent US8399206B2, “Methods for diagnosis, prognosis and methods of treatment” (Nodality, Inc., priority 2008, dated 2013)
